The results in this text go back to US11213522B2, “Autoimmune-induced glutamatergic receptor dysfunction methods and treatments” (SARAH HERZOG MEMORIAL HOSPITAL EZRAT NASHIM ASSOCIATION, priority 2013, dated 2022).

Molecules are shown by their SMILES.

Holding throughout (assay type): in vivo, human
Test [1] has as its system patient positive for anti-NR1 NMDAR antibodies. The experiment in a line: Abnormal Involuntary Movement Scale (AIMS), D-serine clinical trial. The following applies: for AIMS: week 0 score 1. From the text: (§1) Out of the seventeen patients that entered the study, the serum of one patient was strongly positive at both serum sample dilutions for the presence of both IgG and IgM classes of anti-NR1 NMDAR antibodies. The patient was a single person having a diagnosis of schizophrenia according to DSM-IV-R criteria (American Psychiatric Association, 2000 Diagnostic and Statistical Manual of Mental Disorders-(DSM-IV-TR), 4th edition. American Psychiatric Association Washington D.C. (Text Revision)). There was no history of mental disorder in the patient's family. The patient had completed post-high school studies and had worked as a secretary. After a period of continuous headaches, for which no organic basis had been found, they had abruptly developed an acute psychosis characterized by grandiose and paranoid delusions, mystical thinking, […] affect and agitation, They had been hospitalized in a psychiatric hospital and underwent treatment with antipsychotic drugs and electroconvulsive therapy with only partial response. The patient had never returned to their previous functional and except for short attempts at living in the community, has been hospitalized ever since. They have been refractory to treatment with various classes of antipsychotic drugs, was not diagnosed with any medical or neurological disorder and was maintained on sulpiride 50 mg/day, citalopram 40 mg/day, lorazepam 1 mg/day and promethazine 50 mg/day. […] DSR is a naturally occurring amino acid that acts in vivo as an obligatory co-agonist at the glycine modulatory site associated with NMDAR. […] Both acute and chronic administration of 1-2 g DSR in humans is known to result in ≥100 times increases in DSR serum levels (Kantrowitz et al., 2010, Schizophr Res121:125-30; Heresco-Levy et al., 2005, Biol Psychiatry 57:577-85). The trial consisted of two periods, starting with a 2 week lead-in/stabilization period (-2-0) following which the patient was entered in the second period of the study which consisted of a 6 week (0-6), open-label, fixed dose therapy phase. During this phase, the patient received adjuvant treatment with DSR, whose dose was increased from 1500 mg/day (week 1) to 2000 mg/day (weeks 2 and 3) to 3000 mg/day (weeks 4 and 5) and to 4000 mg/day (week 6). The doses of the ongoing medication received by the patient remained fixed throughout the study and no changes in medication were performed. The assessment procedures used in the study included clinical and neurocognitive examinations. Motor and psychiatric symptoms as well as side-effects were rated biweekly throughout the study. […] In conjunction with UKU ratings, patient's vital signs and body weight were monitored throughout the study.

Test [2] has the same test system. The experiment in a line: Neurocognitive assessment battery (overall). The protocol: The trial consisted of two periods, starting with a 2 week lead-in/stabilization period (−2-0) following which the patient was entered in the second period of the study which consisted of a 6 week (0-6), open-label, fixed dose therapy phase. During this phase, the patient received adjuvant treatment with DSR, whose dose was increased from 1500 mg/day (week 1) to 2000 mg/day (weeks 2 and 3) to 3000 mg/day (weeks 4 and 5) and to 4000 mg/day (week 6). The doses of the ongoing medication received by the patient remained fixed throughout the study and no changes in medication were performed.
In addition, cognitive performance was assessed pre- and post DSR treatment. For this purpose, a 1.5-hour neurocognitive assessment battery (nine computerized and two paper/pencil tests) was employed that measures accuracy and speed of performance in major cognition domains, including attention/vigilance, planning, short-term and working memory, decision making, abstraction and mental flexibility. All the tests were formatted like games and puzzles, and were administered to the patient as part of the comprehensive neuropsychiatric assessment at baseline and the end of study. […]

Test [3] shares this test system. Nature of the test: Simpson Angus Scale for Extrapyramidal Symptoms (SAS), D-serine clinical trial. The following applies: week 0 score 5.
Source text: as §1, with “57:577-85).” for “57:577-85). The trial consisted of two periods, starting with a 2 week lead-in/stabilization period (-2-0) following which the patient was entered in the second period of the study which consisted of a 6 week (0-6), open-label, fixed dose therapy phase. During this phase, the patient received adjuvant treatment with DSR, whose dose was increased from 1500 mg/day (week 1) to 2000 mg/day (weeks 2 and 3) to 3000 mg/day (weeks 4 and 5) and to 4000 mg/day (week 6). The doses of the ongoing medication received by the patient remained fixed throughout the study and no changes in medication were performed. The assessment procedures used in the study included clinical and neurocognitive examinations. Motor and psychiatric symptoms as well as side-effects were rated biweekly throughout the study.”

Turning to `N[C@H](CO)C(=O)O` [D-serine], the “Motor symptomatology, as measured by AIMS and SAS scores” value in test [1] (following DSR administration, minimal at baseline) is on record as “improvements were registered”. The AIMS in test [1] (study week 2), in test [1] (study week 4) and in test [1] (study week 6) was 0 throughout. Besides, the “Completion of DST, TMT and WCST tasks” value in test [2] (post-DSR treatment, not comprehended/performed at baseline) is given as “successfully completed”. Besides, in test [2] (post-DSR vs baseline, improvements in working memory, abstraction and mental flexibility), the “Effect upon cognitive performance (test battery)” value was “favorable effect”. Further, the SAS in test [3] (study week 2) worked out at 4; in test [3] (study week 4), 4; in test [3] (study week 6), 3.
